Results published in the NIST ThermoML archive (doi:10.1021/je060411g).

Assay: molar heat capacity at constant pressure
Settings: 101.33 kPa

CCC(O)CC [3-pentanol]
Settings	molar heat capacity at constant pressure [J/K/mol]
152.99 K, Liquid	150.52
154.56 K, Crystal	105.87
155.94 K, Liquid	150.86
156.51 K, Crystal	107.42
158.46 K, Crystal	108.86
158.9 K, Liquid	151.16
160 K, Crystal	118.8
160.42 K, Crystal	110.34
161.85 K, Liquid	151.55
162.38 K, Crystal	111.71
164.37 K, Crystal	103.35
164.81 K, Liquid	152.15
166.37 K, Crystal	115.34
167.78 K, Liquid	153.56
168.31 K, Crystal	115.72
170 K, Crystal	110.3
170.23 K, Crystal	116.98
170.76 K, Liquid	159.22
172.17 K, Crystal	118.28
174.1 K, Crystal	119.45
176.01 K, Crystal	120.74
177.92 K, Crystal	121.98
179.81 K, Crystal	123.05
180 K, Crystal	123.2
181.69 K, Crystal	124.1
183.56 K, Crystal	125.1
185.42 K, Crystal	126.2
187.27 K, Crystal	127.45
189.1 K, Crystal	129.05
190 K, Crystal	129.8
190.93 K, Crystal	130.67
191.18 K, Crystal	146.69
192.74 K, Crystal	132.33
193.08 K, Crystal	133.23
194.53 K, Crystal	134.71
194.98 K, Crystal	136.27
196.31 K, Crystal	137.6
197.93 K, Crystal	143.45
198.06 K, Crystal	141.76
200 K, Crystal	155.5
206.59 K, Liquid	163.08
206.86 K, Liquid	162.81
208.54 K, Liquid	163.45
209.46 K, Liquid	164.31
210 K, Liquid	164.2
210.2 K, Liquid	164.21
211.87 K, Liquid	164.95
212.32 K, Liquid	165.57
213.52 K, Liquid	165.62
215.16 K, Liquid	167.02
215.17 K, Liquid	166.57
216.82 K, Liquid	167.31
217.99 K, Liquid	168.45
218.46 K, Liquid	168.22
220 K, Liquid	169.1
220.1 K, Liquid	169.14
220.8 K, Liquid	170.05
221.73 K, Liquid	170.07
223.36 K, Liquid	170.87
223.59 K, Liquid	171.64
224.98 K, Liquid	171.87
226.37 K, Liquid	173.5
226.59 K, Liquid	172.95
228.2 K, Liquid	173.95
229.13 K, Liquid	175.38
229.81 K, Liquid	174.99
230 K, Liquid	175.1
231.41 K, Liquid	176.24
231.88 K, Liquid	177.23
233 K, Liquid	177.29
234.59 K, Liquid	178.66
234.61 K, Liquid	179.15
236.17 K, Liquid	179.8
237.32 K, Liquid	181.22
237.75 K, Liquid	180.73
239.32 K, Liquid	182.03
240 K, Liquid	183.5
240.01 K, Liquid	183.55
240.89 K, Liquid	183.27
242.45 K, Liquid	184.57
242.69 K, Liquid	185.78
244 K, Liquid	185.93
245.34 K, Liquid	188.15
245.55 K, Liquid	187.34
247.09 K, Liquid	188.71
247.98 K, Liquid	190.62
248.63 K, Liquid	190.19
250 K, Liquid	191.4
250.16 K, Liquid	191.69
250.61 K, Liquid	193.22
251.68 K, Liquid	193.3
253.2 K, Liquid	194.61
253.21 K, Liquid	195.73
254.72 K, Liquid	195.45
255.8 K, Liquid	198.08
256.23 K, Liquid	197.32
257.73 K, Liquid	198.94
258.37 K, Liquid	201.08
259.23 K, Liquid	200.52
260 K, Liquid	201
260.72 K, Liquid	202.41
260.93 K, Liquid	204.02
262.21 K, Liquid	203.99
263.46 K, Liquid	207.15
263.69 K, Liquid	205.59
265.16 K, Liquid	207.37
265.98 K, Liquid	210.2
266.63 K, Liquid	209.14
268.09 K, Liquid	210.93
268.47 K, Liquid	213.3
269.54 K, Liquid	212.66
270 K, Liquid	213.6
270.95 K, Liquid	216.47
270.99 K, Liquid	214.5
272.44 K, Liquid	216.21
273.41 K, Liquid	219.31
273.87 K, Liquid	218
275.3 K, Liquid	219.86
275.85 K, Liquid	222.84
276.73 K, Liquid	221.67
278.15 K, Liquid	223.45
278.28 K, Liquid	226.05
279.56 K, Liquid	225.24
280 K, Liquid	227
280.68 K, Liquid	229.31
280.97 K, Liquid	227.16
282.37 K, Liquid	228.87
283.07 K, Liquid	232.43
283.76 K, Liquid	230.71
285.15 K, Liquid	232.47
285.44 K, Liquid	235.64
286.54 K, Liquid	234.44
287.8 K, Liquid	239.08
287.92 K, Liquid	236.08
289.29 K, Liquid	237.78
290 K, Liquid	238.7
290.66 K, Liquid	239.56
292.02 K, Liquid	241.24
293.38 K, Liquid	242.8
294.74 K, Liquid	244.64
296.09 K, Liquid	246.1
297.43 K, Liquid	247.9
298.15 K, Liquid	248.7
298.77 K, Liquid	249.27
300 K, Liquid	250.7
300.11 K, Liquid	250.87
301.44 K, Liquid	252.15
302.77 K, Liquid	254
304.09 K, Liquid	255.2
305.41 K, Liquid	256.63
306.73 K, Liquid	258.11
308.04 K, Liquid	259.35
309.35 K, Liquid	260.74
